For experiment [1], the target named is Tyrosine-protein kinase ABL2 (Homo sapiens, UniProt P42684). Nature of the experiment: Selectivity interaction (Ambit KINOMEscan and KiNATiv profiling in Jurkat cells) EUB0000090b ABL2. Type of experiment: cell-based. Particulars: at 1 µM.
Another experiment concerns the target D(1A) dopamine receptor (Homo sapiens, UniProt P21728). Nature of the experiment: Selectivity interaction (Panel of non-epigenetic targets (kinases, GPCRs, ion channels, and transporters, Eurofins) ) EUB0000271b DRD1. The note with it: at 1 µM.
Experiment [2] has as its target T1, Ephrin type-A receptor 8 (Homo sapiens) (UniProt P29322).
T1 sequence (whole entry): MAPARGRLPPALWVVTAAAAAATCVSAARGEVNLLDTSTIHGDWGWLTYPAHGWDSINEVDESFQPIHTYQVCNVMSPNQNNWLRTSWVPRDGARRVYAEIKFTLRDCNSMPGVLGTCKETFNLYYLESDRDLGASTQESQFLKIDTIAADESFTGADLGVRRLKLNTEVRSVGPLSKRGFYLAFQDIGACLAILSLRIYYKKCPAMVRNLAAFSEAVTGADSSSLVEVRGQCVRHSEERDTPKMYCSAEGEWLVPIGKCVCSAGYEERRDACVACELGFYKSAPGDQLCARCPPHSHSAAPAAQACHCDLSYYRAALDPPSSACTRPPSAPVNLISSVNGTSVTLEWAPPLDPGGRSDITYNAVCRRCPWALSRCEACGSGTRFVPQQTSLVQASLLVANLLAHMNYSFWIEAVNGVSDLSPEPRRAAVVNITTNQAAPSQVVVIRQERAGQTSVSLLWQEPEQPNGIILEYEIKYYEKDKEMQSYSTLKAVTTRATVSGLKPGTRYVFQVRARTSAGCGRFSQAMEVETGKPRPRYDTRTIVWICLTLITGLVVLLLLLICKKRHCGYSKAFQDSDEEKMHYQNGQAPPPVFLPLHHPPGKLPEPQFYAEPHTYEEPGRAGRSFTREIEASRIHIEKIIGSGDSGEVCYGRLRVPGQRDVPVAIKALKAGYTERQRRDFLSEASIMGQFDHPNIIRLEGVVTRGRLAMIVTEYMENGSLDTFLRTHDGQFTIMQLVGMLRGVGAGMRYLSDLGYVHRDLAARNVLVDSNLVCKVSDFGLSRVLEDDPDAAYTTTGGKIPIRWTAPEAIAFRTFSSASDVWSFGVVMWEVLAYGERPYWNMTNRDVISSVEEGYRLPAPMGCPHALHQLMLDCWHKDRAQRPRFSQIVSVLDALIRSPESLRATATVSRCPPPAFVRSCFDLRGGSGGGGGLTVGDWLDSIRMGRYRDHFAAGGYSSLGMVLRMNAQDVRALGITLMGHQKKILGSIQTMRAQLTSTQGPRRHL
Kind of experiment: Selectivity interaction (KinomeScan (DiscoverX)) EUB0001079a EPHA8. The note with it: at 1 µM.

In experiment [3] the target is DNA-dependent protein kinase catalytic subunit (Homo sapiens) (UniProt P78527). Kind of experiment: Selectivity interaction (ActivX KiNativ screen (kinase selectivity in THP-1 cell lysates)) EUB0000639a PRKDC. Type of experiment: subcellular. The note with it: lysate, at 5 µM.
Experiment [4] addresses Cyclin-dependent kinase 9 (Homo sapiens, UniProt P50750). Kind of experiment: Selectivity interaction (KinomeScan (DiscoverX)) EUB0001049a CDK9. The note with it: at 1 µM.
Experiment [5] deals with T2, Tyrosine-protein kinase JAK3 (Homo sapiens) (UniProt P52333).
T2 sequence (whole entry): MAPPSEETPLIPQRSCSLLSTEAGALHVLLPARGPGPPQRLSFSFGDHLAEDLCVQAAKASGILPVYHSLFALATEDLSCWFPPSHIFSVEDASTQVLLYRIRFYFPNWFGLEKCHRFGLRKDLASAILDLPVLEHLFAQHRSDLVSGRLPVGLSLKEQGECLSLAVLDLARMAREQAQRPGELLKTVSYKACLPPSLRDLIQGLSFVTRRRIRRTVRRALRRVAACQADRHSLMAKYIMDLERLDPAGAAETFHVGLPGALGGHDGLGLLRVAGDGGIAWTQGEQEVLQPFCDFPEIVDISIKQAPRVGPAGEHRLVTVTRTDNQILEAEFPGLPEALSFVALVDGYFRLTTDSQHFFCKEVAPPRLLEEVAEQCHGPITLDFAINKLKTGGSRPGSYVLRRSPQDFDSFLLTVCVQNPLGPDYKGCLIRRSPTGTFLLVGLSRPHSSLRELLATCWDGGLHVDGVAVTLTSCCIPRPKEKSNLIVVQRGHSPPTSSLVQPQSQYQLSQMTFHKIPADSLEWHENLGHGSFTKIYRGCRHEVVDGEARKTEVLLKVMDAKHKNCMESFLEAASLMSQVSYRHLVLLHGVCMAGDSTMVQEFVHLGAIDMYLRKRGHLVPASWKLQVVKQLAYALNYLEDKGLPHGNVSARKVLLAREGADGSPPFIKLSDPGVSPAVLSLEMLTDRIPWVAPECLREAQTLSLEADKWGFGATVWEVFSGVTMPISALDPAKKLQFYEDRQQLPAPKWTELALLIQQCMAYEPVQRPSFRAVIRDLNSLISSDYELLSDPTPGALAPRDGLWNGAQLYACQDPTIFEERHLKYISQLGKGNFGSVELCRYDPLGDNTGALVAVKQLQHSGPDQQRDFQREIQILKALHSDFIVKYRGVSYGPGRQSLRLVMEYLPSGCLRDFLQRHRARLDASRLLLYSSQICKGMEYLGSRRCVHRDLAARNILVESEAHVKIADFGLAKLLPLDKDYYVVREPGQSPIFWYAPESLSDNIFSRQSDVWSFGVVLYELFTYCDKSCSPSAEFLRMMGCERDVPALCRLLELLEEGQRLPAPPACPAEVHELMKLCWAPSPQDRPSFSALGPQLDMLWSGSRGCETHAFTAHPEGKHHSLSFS
Kind of experiment: Selectivity interaction (ProQinase) EUB0000171b JAK3.

Experiment [6] addresses T3, Dual specificity mitogen-activated protein kinase kinase 3 (Homo sapiens) (UniProt P46734).
T3 sequence (whole entry): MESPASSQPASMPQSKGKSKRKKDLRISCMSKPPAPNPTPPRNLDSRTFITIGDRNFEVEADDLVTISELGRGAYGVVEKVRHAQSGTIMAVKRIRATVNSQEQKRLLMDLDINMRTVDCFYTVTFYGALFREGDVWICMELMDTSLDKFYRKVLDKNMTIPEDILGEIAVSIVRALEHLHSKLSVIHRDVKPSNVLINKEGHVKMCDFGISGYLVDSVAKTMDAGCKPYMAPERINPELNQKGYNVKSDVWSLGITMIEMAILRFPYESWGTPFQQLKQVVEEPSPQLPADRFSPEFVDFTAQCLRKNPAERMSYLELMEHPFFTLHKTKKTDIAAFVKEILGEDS
Nature of the experiment: Selectivity interaction (KinomeScan (DiscoverX)) EUB0000092b MAP2K3. Particulars: at 10 µM.

Sequence of D(1A) dopamine receptor (P21728 whole entry): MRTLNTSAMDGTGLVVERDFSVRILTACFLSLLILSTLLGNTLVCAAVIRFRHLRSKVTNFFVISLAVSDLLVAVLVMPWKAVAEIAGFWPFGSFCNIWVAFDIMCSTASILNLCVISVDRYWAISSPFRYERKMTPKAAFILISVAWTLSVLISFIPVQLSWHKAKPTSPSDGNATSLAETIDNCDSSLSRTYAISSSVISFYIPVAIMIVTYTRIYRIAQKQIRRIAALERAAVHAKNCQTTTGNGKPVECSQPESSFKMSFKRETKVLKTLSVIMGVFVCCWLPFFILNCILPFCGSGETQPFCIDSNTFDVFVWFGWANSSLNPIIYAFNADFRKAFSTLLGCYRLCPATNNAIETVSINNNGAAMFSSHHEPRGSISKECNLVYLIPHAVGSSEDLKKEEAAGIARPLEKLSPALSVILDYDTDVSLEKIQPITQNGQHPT
Sequence of DNA-dependent protein kinase catalytic subunit (Homo sapiens) (P78527 whole entry): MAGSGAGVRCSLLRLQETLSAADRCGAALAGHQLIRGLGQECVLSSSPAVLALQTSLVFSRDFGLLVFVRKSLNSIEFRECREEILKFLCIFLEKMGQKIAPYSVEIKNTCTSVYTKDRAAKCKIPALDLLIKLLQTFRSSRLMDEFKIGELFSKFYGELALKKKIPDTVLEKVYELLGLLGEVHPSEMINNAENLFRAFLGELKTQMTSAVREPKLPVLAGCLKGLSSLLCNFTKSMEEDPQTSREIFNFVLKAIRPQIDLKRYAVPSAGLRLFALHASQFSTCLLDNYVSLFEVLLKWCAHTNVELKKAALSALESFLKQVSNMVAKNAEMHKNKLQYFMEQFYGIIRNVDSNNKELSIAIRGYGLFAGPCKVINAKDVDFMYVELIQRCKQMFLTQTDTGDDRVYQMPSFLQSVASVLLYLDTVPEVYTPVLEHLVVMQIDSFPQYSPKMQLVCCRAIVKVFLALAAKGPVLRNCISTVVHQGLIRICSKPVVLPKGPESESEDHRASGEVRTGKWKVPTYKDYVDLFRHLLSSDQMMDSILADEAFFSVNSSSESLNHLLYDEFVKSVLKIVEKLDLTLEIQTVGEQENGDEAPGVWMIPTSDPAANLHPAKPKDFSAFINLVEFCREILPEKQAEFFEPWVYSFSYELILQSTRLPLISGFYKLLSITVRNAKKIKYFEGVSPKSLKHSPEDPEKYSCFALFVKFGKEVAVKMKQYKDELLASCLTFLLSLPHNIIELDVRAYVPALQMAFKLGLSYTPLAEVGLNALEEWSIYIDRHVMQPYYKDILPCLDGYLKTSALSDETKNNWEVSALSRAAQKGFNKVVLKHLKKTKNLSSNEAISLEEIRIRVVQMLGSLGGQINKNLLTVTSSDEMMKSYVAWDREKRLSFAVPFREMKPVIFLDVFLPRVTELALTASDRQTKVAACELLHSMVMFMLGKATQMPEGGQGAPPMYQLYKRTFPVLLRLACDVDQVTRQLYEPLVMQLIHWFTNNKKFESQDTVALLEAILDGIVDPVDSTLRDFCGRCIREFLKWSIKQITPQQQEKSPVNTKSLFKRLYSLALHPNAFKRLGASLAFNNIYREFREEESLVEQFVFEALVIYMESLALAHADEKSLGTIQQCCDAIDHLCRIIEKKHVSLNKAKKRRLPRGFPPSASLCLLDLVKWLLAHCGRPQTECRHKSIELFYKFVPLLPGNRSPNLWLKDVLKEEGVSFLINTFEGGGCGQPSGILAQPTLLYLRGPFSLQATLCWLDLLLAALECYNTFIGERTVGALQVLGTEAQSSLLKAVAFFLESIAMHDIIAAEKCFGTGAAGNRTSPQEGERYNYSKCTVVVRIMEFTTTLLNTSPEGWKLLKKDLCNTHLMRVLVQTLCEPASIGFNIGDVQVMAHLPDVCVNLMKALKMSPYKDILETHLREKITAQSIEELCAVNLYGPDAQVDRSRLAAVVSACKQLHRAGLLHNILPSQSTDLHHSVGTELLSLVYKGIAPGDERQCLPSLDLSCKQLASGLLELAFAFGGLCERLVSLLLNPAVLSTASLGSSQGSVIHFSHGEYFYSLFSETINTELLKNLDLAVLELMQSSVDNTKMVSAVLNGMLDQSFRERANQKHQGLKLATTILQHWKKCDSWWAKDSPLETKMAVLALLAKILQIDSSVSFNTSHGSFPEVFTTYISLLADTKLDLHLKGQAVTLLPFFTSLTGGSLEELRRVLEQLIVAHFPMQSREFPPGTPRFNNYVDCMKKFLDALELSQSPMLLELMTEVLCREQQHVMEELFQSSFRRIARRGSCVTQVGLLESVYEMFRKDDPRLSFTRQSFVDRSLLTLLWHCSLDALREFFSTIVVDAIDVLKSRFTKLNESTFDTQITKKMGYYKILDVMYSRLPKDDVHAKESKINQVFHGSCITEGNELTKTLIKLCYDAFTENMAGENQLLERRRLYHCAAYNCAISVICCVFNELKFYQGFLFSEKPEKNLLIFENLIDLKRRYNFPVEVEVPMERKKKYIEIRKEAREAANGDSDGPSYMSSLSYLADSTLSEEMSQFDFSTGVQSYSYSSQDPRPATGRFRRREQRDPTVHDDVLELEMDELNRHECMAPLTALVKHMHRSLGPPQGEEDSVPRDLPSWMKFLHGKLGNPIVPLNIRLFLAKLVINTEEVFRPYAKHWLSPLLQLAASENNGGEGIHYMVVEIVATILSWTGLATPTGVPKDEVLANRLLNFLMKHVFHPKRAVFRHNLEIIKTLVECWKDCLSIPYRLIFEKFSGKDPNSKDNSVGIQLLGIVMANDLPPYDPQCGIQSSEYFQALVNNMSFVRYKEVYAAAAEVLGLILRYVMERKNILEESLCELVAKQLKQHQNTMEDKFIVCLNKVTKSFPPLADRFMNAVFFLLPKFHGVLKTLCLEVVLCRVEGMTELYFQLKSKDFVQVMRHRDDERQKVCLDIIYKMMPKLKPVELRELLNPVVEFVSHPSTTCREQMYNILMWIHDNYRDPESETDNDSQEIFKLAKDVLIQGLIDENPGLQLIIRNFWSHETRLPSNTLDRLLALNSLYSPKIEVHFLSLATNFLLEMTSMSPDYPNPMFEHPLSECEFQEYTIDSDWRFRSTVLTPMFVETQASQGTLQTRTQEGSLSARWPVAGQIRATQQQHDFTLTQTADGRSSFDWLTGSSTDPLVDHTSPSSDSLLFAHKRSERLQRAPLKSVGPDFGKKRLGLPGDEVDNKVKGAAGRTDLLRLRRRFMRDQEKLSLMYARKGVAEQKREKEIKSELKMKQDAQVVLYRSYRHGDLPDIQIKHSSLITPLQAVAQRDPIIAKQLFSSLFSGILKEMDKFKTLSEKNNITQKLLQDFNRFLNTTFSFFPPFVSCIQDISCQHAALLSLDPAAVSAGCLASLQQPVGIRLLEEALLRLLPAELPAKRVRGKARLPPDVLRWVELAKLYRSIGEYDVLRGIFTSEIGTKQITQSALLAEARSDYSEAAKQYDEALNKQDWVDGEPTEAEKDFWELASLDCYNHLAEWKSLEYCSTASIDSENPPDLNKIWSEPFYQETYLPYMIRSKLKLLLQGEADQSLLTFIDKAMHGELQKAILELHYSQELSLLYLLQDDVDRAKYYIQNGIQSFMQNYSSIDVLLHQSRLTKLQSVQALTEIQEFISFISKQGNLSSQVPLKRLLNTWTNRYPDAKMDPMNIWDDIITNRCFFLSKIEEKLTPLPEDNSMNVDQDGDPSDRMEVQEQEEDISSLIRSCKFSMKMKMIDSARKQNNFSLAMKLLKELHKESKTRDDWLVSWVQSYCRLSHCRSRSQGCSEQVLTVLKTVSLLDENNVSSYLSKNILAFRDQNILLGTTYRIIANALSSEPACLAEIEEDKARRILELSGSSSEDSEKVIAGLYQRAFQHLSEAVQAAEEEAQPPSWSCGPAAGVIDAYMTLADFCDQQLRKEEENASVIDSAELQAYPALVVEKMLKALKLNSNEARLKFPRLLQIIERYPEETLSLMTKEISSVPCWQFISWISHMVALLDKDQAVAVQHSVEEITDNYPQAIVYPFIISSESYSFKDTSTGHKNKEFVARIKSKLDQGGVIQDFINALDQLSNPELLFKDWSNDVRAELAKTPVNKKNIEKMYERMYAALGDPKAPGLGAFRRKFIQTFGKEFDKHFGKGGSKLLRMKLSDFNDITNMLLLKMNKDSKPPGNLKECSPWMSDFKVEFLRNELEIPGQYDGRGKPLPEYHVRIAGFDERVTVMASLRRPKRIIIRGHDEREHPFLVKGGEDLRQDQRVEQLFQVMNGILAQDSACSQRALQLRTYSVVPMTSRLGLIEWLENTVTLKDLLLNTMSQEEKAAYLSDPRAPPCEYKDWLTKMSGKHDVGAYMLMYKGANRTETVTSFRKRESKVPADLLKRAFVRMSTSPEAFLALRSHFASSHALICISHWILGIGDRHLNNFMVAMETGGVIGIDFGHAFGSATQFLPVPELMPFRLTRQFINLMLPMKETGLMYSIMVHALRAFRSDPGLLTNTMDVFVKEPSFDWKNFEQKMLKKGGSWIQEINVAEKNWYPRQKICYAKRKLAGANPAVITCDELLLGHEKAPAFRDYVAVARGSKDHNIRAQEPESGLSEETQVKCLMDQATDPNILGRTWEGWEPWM
Sequence of Cyclin-dependent kinase 9 (P50750 whole entry): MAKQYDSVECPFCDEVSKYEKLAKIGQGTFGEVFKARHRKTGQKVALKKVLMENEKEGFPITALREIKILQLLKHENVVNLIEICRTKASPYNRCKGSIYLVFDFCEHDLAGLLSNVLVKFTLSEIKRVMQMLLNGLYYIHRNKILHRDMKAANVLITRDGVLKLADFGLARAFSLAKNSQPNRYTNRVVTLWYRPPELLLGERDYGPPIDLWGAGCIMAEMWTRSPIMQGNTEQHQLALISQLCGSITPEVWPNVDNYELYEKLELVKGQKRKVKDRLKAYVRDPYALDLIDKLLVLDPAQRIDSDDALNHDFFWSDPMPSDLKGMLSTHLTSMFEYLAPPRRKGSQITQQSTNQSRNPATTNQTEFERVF

Compound `CN(C)C/C=C/C(=O)Nc1ccc(C(=O)N2CCCC(Nc3ncc(Cl)c(-c4c[nH]c5ccccc45)n3)C2)cc1` (stereo not drawn) yielded a % of control in experiment [1] of 92%.

For the compound `Cc1cc(C)cc([C@@H]2c3cc(C)ccc3NC(=O)CN2C(=O)c2ccc(Br)s2)c1`, the % of inhibition on D(1A) dopamine receptor is 9%.

As for `Nc1cnc(N2CCc3cc(S(=O)(=O)Nc4c(F)cc(Cl)cc4F)cc(N4CCCC4=O)c32)nc1` [TP-020n], in experiment [2], the % of control is 100%.

On to `CC[C@@H]1[C@H](F)C(=O)N[C@@H]1COc1nccc2cc(C(N)=O)c(OC)cc12` [ZIMLOVISERTIB], for which the % of inhibition in experiment [3] is -11.7%.

With `COc1cc(Nc2nc(C)cc(-c3cnn4nc(OC)ccc34)n2)cc(C(F)(F)F)c1`, the % of control in experiment [4] came to 100%.

Consider `C=CC(=O)Nc1cccc(C(=O)Nc2ccc(Nc3cc(-c4[nH]c(SC)nc4C)ccn3)cc2)c1`, for which the % of control in experiment [5] (at 1 µM) came to 79%; in experiment [5] (at 5 µM), 54%.

For the compound `CCC(=O)N1CCN(c2ccc(-n3c(=O)ccc4cnc5ccc(-c6cnc7ccccc7c6)cc5c43)cc2C(F)(F)F)CC1`, the % of control in experiment [6] worked out at 80%.

The values above are taken from ChEMBL document CHEMBL5465560, “Selectivity Literature for EUbOPEN Chemogenomic Library” (2024).
